Earlier results in PMC11062894, “Protein-based bandpass filters for controlling cellular signaling with chemical inputs” (Nature Chemical Biology, 2023).

Target: BclXL
Details: cited from earlier work

For `CN(C)CC#Cc1ccc(OCCCc2sc(N3CCc4cccc(C(=O)Nc5nc6ccccc6s5)c4C3)nc2C(=O)O)c(F)c1` [A-1155463], which Kd is on record?
The Kd was under 10 pM.
